# Reference: patent publication US9321756B2, “Azole compounds as PIM inhibitors” (priority 2011, dated 2016)
# Like-named read-outs stand apart in the source and are kept apart here.
# Tests used:
# [1] = biological target: full length recombinant Pim-2 (Homo sapiens (Human), UniProt Q9P1W9); experiment: Pim enzyme assay (HTRF, phosphorylation of biotinylated-BAD (S112) peptide), Pim-2; type: biochemical; details: read-out: Pim2_IC50
# [2] = biological target: full length recombinant Pim-1 (Homo sapiens (Human), UniProt P11309); experiment: Pim enzyme assay (HTRF, phosphorylation of biotinylated-BAD (S112) peptide), Pim-1; type: biochemical
# Sequence of full length recombinant Pim-1 (P11309 whole entry): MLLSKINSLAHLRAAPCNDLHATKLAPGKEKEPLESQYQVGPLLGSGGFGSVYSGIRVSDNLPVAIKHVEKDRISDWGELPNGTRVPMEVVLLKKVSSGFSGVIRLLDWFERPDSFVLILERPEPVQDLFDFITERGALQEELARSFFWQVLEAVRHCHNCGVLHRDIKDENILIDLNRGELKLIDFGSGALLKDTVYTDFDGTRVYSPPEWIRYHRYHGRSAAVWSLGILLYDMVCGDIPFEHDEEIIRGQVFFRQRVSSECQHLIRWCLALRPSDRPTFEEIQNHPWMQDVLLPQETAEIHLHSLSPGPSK
# [3] = tested on: Pim-2 stably transfected U2OS human osteogenic sarcoma line; experiment: Pim cell assay U2OS (phospho-BAD normalized against total BAD), Pim-2 transfected; type: cell-based; details: Homo sapiens, read-out: U2OS Pim2_Cell_IC50
# Procedure: (§1) The cell lines used in the assay were generated by the stable transfection of either Pim-1 or Pim-2 into the U2OS human osteogenic sarcoma line. The assay for determination of the Pim activity in the engineered U2OS cell lines measures levels of phospho-BAD normalized against total BAD protein levels. It was conducted as follows:
# (§2) The adherent cells were dissociated from the flasks using non-enzymatic cell dissociation solution (Sigma #C5914). […] The cells were then incubated overnight at 37° C., 5% CO2.
# (§3) In addition to the 10-point dosing curve of the test compound, DMSO alone was run as the high control.
# (§4) This dilution in DMSO was then diluted again into cell growth medium. Aliquots (12 μL) of the compound diluted in growth medium were then transferred to the appropriate wells of the 96-well plates containing cells to a final DMSO concentration of 0.3%. The cell plates were then incubated with compound for 29 min at 37° C., 5% CO2.
# (§5) The cell plates containing lysis buffer were then immediately stored at −70° C.
# (§6) These prepared lysates were then assayed for phospho and total BAD according to the manufacturer's protocols (Meso Scale Diagnostics, Cat#K15103C-3 & #K15103D-3). The plates were read on the MSD Sector Imager 6000, and results were calculated according to the assay protocols ((% Phosphoprotein=((2×Phospho signal)/(Phospho signal+Total signal))×100)).
# [4] = tested on: Pim-1 stably transfected U2OS human osteogenic sarcoma line; experiment: Pim cell assay U2OS (phospho-BAD normalized against total BAD), Pim-1 transfected; type: cell-based; details: Homo sapiens, U2OS
# Procedure: as §1, §2, §3, §4, §5, §6
# [5] = biological target: full length recombinant Pim-3 (Homo sapiens (Human), UniProt Q86V86); experiment: Pim enzyme assay (HTRF, phosphorylation of biotinylated-BAD (S112) peptide), Pim-3; type: biochemical; details: Pim-3 enzyme assay; read-out: Pim3 IC50
# Procedure, shortened: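 IC50 values were fitted with a 4-parameter logistic model to percent-of-control HTRF signal (Eu anti-phospho-BAD S112 antibody/streptavidin-APC). Reactions used full-length Pim-3 and biotin-BAD (S112) peptide, ran 1 h 30 min at RT (22 °C) in Hepes pH 7.0 buffer with BSA and DTT, and were stopped by 3 mM EDTA.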
# [6] = Pim-1 enzyme assay, read-out: Pim_1_IC50
# [7] = read-out: U2OS Pim1_Cell_IC50, U2OS cells, Pim-1 transfected
# Sequence of full length recombinant Pim-2 (Q9P1W9 whole entry): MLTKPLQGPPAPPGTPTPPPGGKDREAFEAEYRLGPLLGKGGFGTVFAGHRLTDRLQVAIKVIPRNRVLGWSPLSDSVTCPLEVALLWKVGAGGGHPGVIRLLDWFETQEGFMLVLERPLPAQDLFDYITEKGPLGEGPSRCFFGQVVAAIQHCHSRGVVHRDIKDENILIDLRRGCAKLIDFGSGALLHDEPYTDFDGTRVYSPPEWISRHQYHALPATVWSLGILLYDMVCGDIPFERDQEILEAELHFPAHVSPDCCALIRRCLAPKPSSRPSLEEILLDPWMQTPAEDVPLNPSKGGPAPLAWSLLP
IC50 ([1]; Pim-2 enzyme assay) [nM],"IC50 [2, 6] [nM]",IC50 [5] [nM],IC50 [2] [nM],SMILES,"IC50 ([3]; U2OS cells, Pim-2 transfected) [nM]",IC50 ([4]; read-out: U2OS Pim1_Cell_IC50) [nM],"IC50 [4, 7] [nM]",IC50 [1] [nM],IC50 ([3]; U2OS) [nM]
5.84,3.2,,,"c1cc2[nH]cc(-c3cncc(C4CC4)n3)c2cc1-c1nnc(NC2COC2)o1 [Example 251, 5-(3-(6-cyclopropyl-2-pyrazinyl)-1H-indol-5-yl)-N-3-oxetanyl-1,3,4-oxadiazol-2-amine]",2010,107,,,
9.65,,1.15,,"CC(C)Nc1cncc(-c2c[nH]c3ccc(-c4nnc(N)s4)cc23)n1 [Example 206, 6-(5-(5-amino-1,3,4-thiadiazol-2-yl)-1H-indol-3-yl)-N-(1-methylethyl)-2-pyrazinamine]",945,,,,
18.1,3.15,,,"Nc1nnc(-c2ccc3[nH]cc(-c4cncc(NC5CCCCC5)n4)c3c2)s1 [Example 208, 6-(5-(5-amino-1,3,4-thiadiazol-2-yl)-1H-indol-3-yl)-N-cyclohexyl-2-pyrazinamine]",2600,,56.3,,
2.38,4.68,,,"Nc1nnc(-c2ccc3[nH]cc(-c4nccc(OCC(F)(F)F)n4)c3c2)o1 [Example 110, 5-(3-(4-(2,2,2-trifluoroethoxy)-2-pyrimidinyl)-1H-indol-5-yl)-1,3,4-oxadiazol-2-amine]",1630,219,,,
25.1,12.6,,,"Nc1nnc(-c2ccc3[nH]cc(-c4cncc(-c5ccc(Cl)cc5)n4)c3c2)o1 [Example 114, 5-(3-(6-(4-chlorophenyl)-2-pyrazinyl)-1H-indol-5-yl)-1,3,4-oxadiazol-2-amine]",> 31600,,137,,
29.8,9.66,,,"CC[C@@H]1COCCN1c1nnc(-c2ccc3[nH]cc(-c4cncc(C5CC5)n4)c3c2)o1 (stereo in doubt) [Example 252, 3-(6-cyclopropyl-2-pyrazinyl)-5-(5-(3-ethyl-4-morpholinyl)-1,3,4-oxadiazol-2-yl)-1H-indole]",> 31600,310,,,
10.1,7.77,,,"CC(C)Oc1cccc(-c2c[nH]c3ccc(-c4nnc(N)s4)cc23)n1 [Example 157, 5-(3-(6-(1-methylethoxy)-2-pyridinyl)-1H-indol-5-yl)-1,3,4-thiadiazol-2-amine]",2220,106,,,
20.9,13.9,,,"C[C@H]1COCCN1c1nnc(-c2ccc3[nH]cc(-c4cncc(C5CC5)n4)c3c2)o1 [Example 248, 3-(6-cyclopropyl-2-pyrazinyl)-5-(5-((3S)-3-methyl-4-morpholinyl)-1,3,4-oxadiazol-2-yl)-1H-indole]",> 31600,,192,,
1.41,1.99,,,"c1cc(C2CC2)nc(-c2c[nH]c3ccc(-c4nnc(NC5CC5)o4)cc23)n1 [Example 257, N-cyclopropyl-5-(3-(4-cyclopropyl-2-pyrimidinyl)-1H-indol-5-yl)-1,3,4-oxadiazol-2-amine]",943,100,,,
0.638,0.407,,,"FC(F)(F)CNc1nnc(-c2ccc3[nH]cc(-c4nccc(C5CC5)n4)c3c2)o1 [Example 53, 5-(3-(4-cyclopropylpyrimidin-2-yl)-1H-indol-5-yl)-N-(2,2,2-trifluoroethyl)-1,3,4-oxadiazol-2-amine]",475,34.5,,,
155,51.6,13.7,,"NCCCNc1nnc(-c2ccc3[nH]cc(-c4ccccc4F)c3c2)s1 [Example 12, N-(5-(3-(2-fluorophenyl)-1H-indol-5-yl)-1,3,4-thiadiazol-2-yl)propane-1,3-diamine]",,3170,,,
25.7,13.7,,,"COC[C@H]1CCCN1c1ccnc(-c2c[nH]c3ccc(-c4nnc(N)o4)cc23)n1 [Example 113, 5-(3-(4-((2R)-2-(methoxymethyl)-1-pyrrolidinyl)-2-pyrimidinyl)-1H-indol-5-yl)-1,3,4-oxadiazol-2-amine]",> 10000,380,,,
459,61.3,54.1,,"CN1CCN(c2cnc(-c3c[nH]c4ccc(-c5nnc(N)s5)cc34)cn2)CC1 [Example 178, 5-(3-(5-(4-methyl-1-piperazinyl)-2-pyrazinyl)-1H-indol-5-yl)-1,3,4-thiadiazol-2-amine]",,,2250,,
,,,,"Nc1nnc(-c2ccc3[nH]cc(-c4cccc(NC5CCCC5)n4)c3c2)s1 [Example 16, 5-(3-(6-(cyclopentylamino)pyridin-2-yl)-1H-indol-5-yl)-1,3,4-thiadiazol-2-amine 2,2,2-trifluoroacetate]",,,,21.1,3090
25.2,13.7,,,"CC(C)Nc1nnc(-c2ccc3[nH]cc(-c4nccc(C(F)(F)F)n4)c3c2)o1 [Example 258, N-(1-methylethyl)-5-(3-(4-(trifluoromethyl)-2-pyrimidinyl)-1H-indol-5-yl)-1,3,4-oxadiazol-2-amine]",3720,229,,,
2.85,5.79,,,"CN1CCCC(Oc2ccnc(-c3c[nH]c4ccc(-c5nnc(N)o5)cc34)n2)C1 (stereo not drawn) [Example 112, 5-(3-(4-((1-methyl-3-piperidinyl)oxy)-2-pyrimidinyl)-1H-indol-5-yl)-1,3,4-oxadiazol-2-amine]",1160,180,,,
,20.3,,,"c1cc2[nH]cc(-c3cncc(C4CC4)n3)c2cc1-c1nnc(N2CCOCC2)o1 [Example 245, 3-(6-cyclopropyl-2-pyrazinyl)-5-(5-(4-morpholinyl)-1,3,4-oxadiazol-2-yl)-1H-indole]",> 31600,,217,,
730,,44.4,94.9,"Nc1ncc(-c2ccc3[nH]cc(-c4cccc(N5CCOCC5)n4)c3c2)s1 [Example 213, 5-(3-(6-(4-morpholinyl)-2-pyridinyl)-1H-indol-5-yl)-1,3-thiazol-2-amine]",,1520,,,
68.8,40.5,,,"Nc1nnc(-c2ccc3[nH]cc(-c4cccc(N5CCCCC5)n4)c3c2)s1 [Example 172, 5-(3-(6-(1-piperidinyl)-2-pyridinyl)-1H-indol-5-yl)-1,3,4-thiadiazol-2-amine]",> 31600,414,,,
117,41.4,17.7,,"CC1CCN(c2cccc(-c3c[nH]c4ccc(-c5nnc(N)s5)cc34)n2)CC1 [Example 175, 5-(3-(6-(4-methyl-1-piperidinyl)-2-pyridinyl)-1H-indol-5-yl)-1,3,4-thiadiazol-2-amine]",,682,,,

SMILES,IC50 ([1]; Pim-2 enzyme assay) [nM],"IC50 [2, 6] [nM]",IC50 [5] [nM],IC50 [2] [nM],"IC50 ([3]; U2OS cells, Pim-2 transfected) [nM]",IC50 ([4]; read-out: U2OS Pim1_Cell_IC50) [nM],"IC50 [4, 7] [nM]",IC50 [1] [nM],IC50 ([3]; U2OS) [nM]
"CC(C)Nc1cncc(-c2c[nH]c3ccc(-c4nc(N)ns4)cc23)n1 [Example 64, 5-(3-(6-(isopropylamino)pyrazin-2-yl)-1H-indol-5-yl)-1,2,4-thiadiazol-3-amine]",58.7,4.26,,,> 10000,200,,,
"CNc1nnc(-c2ccc3[nH]cc(-c4cccc(OC(C)C)n4)c3c2)o1 [Example 41, 5-(3-(6-isopropoxypyridin-2-yl)-1H-indol-5-yl)-N-methyl-1,3,4-oxadiazol-2-amine]",,6.48,,,1320,,124,19.6,
"CN1CCCC(Nc2ccnc(-c3c[nH]c4ccc(-c5nnc(N)o5)cc34)n2)C1 (stereo not drawn) [Example 111, 2-(5-(5-amino-1,3,4-oxadiazol-2-yl)-1H-indol-3-yl)-N-(1-methyl-3-piperidinyl)-4-pyrimidinamine]",6.59,18.6,,,> 31600,> 31600,,,
"c1cc2[nH]cc(-c3cncc(C4CC4)n3)c2cc1-c1nnc(C2CC2)o1 [Example 44, 2-Cyclopropyl-5-(3-(6-cyclopropylpyrazin-2-yl)-1H-indol-5-yl)-1,3,4-oxadiazole]",26,9.92,,,> 31600,628,,,
"Fc1ccccc1-c1c[nH]c2ccc(-c3nnc(NCC[C@H]4CCCCN4)s3)cc12 (stereo in doubt) [Example 141, 5-(3-(2-fluorophenyl)-1H-indol-5-yl)-N-(2-(2-piperidinyl)ethyl)-1,3,4-thiadiazol-2-amine]",480,74,49.6,,,1110,,,
